According to patent US11345825B2, “Aqueous pigment dispersion” (KAO CORPORATION, priority 2016, dated 2022):

Experiment: Measurement of pKa of ethanolamine (potentiometric titration)
Conditions: aqueous solution of the ethanolamine

Work on `COCCOCCN(CCOCCOC)CCOCCOC` [Tris[2-(2-methoxyethoxy)ethyl]amine, tris[2-(2-methoxyethoxy)ethyl]amine] yielded a pKa of 7.48.
